{"source": "patent US10525055B2", "about": "“Opioid receptor antagonist prodrugs” (Nirsum Laboratories, Inc., priority 2017, dated 2020)", "key": {"[1]": {"settings": "cited from earlier work"}, "KOR": {"target": "T1, KOR (Homo sapiens, UniProt P41145)", "T1 construct": "expressed in transfected cells; membranes prepared from them", "T1 sequence (P41145 whole entry)": "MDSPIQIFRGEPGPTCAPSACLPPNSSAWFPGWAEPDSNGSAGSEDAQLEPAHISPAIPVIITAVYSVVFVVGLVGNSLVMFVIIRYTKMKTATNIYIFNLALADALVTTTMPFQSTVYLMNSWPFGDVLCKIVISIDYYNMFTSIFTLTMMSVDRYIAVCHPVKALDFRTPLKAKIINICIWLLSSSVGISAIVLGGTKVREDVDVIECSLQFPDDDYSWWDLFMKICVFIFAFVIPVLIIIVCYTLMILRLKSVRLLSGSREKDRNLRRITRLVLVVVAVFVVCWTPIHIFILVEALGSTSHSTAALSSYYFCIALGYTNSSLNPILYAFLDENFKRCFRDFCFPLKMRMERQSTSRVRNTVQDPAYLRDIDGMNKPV", "assay": "Opioid receptor binding assay, KOR ([3H]Diprenorphine)"}, "[2]": {"assay": "Equilibrium solubility in water", "settings": "heating temp. 40 °C, obs. temp. 40 °C"}, "MOR": {"target": "T2, MOR (Homo sapiens, UniProt P35372)", "T2 construct": "expressed in transfected cells; membranes prepared from them", "T2 sequence (P35372 whole entry)": "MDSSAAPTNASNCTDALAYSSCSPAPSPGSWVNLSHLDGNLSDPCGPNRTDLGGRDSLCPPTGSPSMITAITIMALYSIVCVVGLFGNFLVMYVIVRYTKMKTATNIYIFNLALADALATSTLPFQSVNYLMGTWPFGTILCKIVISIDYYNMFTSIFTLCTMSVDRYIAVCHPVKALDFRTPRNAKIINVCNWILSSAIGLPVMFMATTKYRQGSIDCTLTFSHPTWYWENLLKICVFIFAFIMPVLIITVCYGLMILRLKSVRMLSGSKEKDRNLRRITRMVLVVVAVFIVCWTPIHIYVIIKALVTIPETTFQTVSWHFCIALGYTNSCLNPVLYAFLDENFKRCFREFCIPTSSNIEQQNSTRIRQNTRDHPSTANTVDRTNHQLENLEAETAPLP", "assay": "Opioid receptor binding assay, MOR ([3H]DAMGO)"}, "[3]": {"assay": "Solubility determination in oil (cottonseed oil, sesame oil)", "settings": "Sesame oil", "procedure": "A known amount of test substance (˜40 mg) was weighed into the vial, 100 μL of oil was added and heated to 60° C. and then system was slurried to reach equilibrium. […] Extra oil was added into the vial once compound precipitated out and then the system was re-equilibrated at 1000 rpm at room temperature (25° C.). Final concentration was determined by HPLC method as described below in Table 6a and 6b."}, "[4]": {"assay": "Plasma stability assay, rat plasma", "type": "in vitro ADME", "settings": "37° C., 10 μM"}, "[5]": {"assay": "Polymorph screening of solid state drug substances", "settings": "for XRPD results (Dried): stirred 50 °C 72 hours, solids dried; for Visual observation 50° C. / Visual observation RT: target conc. 100 mg/ml"}}}
{"smiles": "O=C1CC[C@@]2(O)[C@H]3Cc4ccc(O)c5c4[C@@]2(CCN3CC2CC2)[C@H]1O5", "note": "[naltrexone, 17-(cyclopropylmethyl)-4,5α-epoxy-3,14-dihydroxymorphinan-6-one, reference compound]", "values": [{"measurement": "time of peak plasma levels after oral dosing", "setting": "[1]", "result": "one"}]}
{"smiles": "C=C1CC[C@@]2(O)C3Cc4ccc(OC(=O)CCCCCCCCCCCCCCCCCCCCC)c5c4[C@@]2(CCN3CC2CC2)[C@H]1O5", "note": "[Compound 14, (4aS,7aS,12bS)-3-(cyclopropylmethyl)-4a-hydroxy-7-methylene-2,3,4,4a,5,6,7,7a-octahydro-1H-4,12-methanobenzofuro[3,2-e]isoquinolin-9-yl docosanoate]", "values": [{"measurement": "IC50", "setting": "KOR", "result": 1770, "unit": "nM"}, {"measurement": "%Inh@MaxDose", "setting": "KOR; KOR, MaxDose 10000 nM", "result": 68.1, "unit": "%"}, {"measurement": "Equilibrium solubility (mg/mL) Water", "setting": "[2]", "result": 0.0056, "unit": "mg/mL"}, {"measurement": "IC50", "setting": "MOR", "result": 12.5, "unit": "nM"}, {"measurement": "%Inh@MaxDose", "setting": "MOR; MOR, MaxDose 10000 nM", "result": 92.7, "unit": "%"}, {"measurement": "Approximate Solubility (mg/mL) in Excipient: Sesame oil", "setting": "[3]; heating temp. 40 °C, obs. temp. 40 °C", "result": "<51", "unit": "mg/mL"}, {"measurement": "% remaining at time point in minutes, 0 min", "setting": "[4]; 0 min", "result": 100, "unit": "%"}, {"measurement": "% remaining at time point in minutes, 15 min", "setting": "[4]; 15 min", "result": 94, "unit": "%"}, {"measurement": "% remaining at time point in minutes, 120 min", "setting": "[4]; 120 min", "result": 112, "unit": "%"}, {"measurement": "% remaining at time point in minutes, 480 min", "setting": "[4]; 480 min", "result": 107, "unit": "%"}, {"measurement": "% remaining at time point in minutes, 1440 min", "setting": "[4]; 1440 min", "result": 120, "unit": "%"}, {"measurement": "XRPD results (Dried)", "setting": "[5]; Acetone", "result": "Pattern A"}, {"measurement": "Visual observation 50° C.", "setting": "[5]; Acetone", "result": "Clear"}, {"measurement": "Visual observation RT", "setting": "[5]; Acetone", "result": "Slimy"}, {"measurement": "XRPD results (Dried)", "setting": "[5]; EtOAc", "result": "Pattern A"}, {"measurement": "Visual observation 50° C.", "setting": "[5]; EtOAc", "result": "Clear"}, {"measurement": "Visual observation RT", "setting": "[5]; EtOAc", "result": "Slurry"}, {"measurement": "XRPD results (Dried)", "setting": "[5]; Heptane", "result": "Pattern B"}, {"measurement": "Visual observation 50° C.", "setting": "[5]; Heptane", "result": "Slurry"}, {"measurement": "Visual observation RT", "setting": "[5]; Heptane", "result": "Slurry"}, {"measurement": "XRPD results (Dried)", "setting": "[5]; Isopropanol", "result": "Pattern A"}, {"measurement": "Visual observation 50° C.", "setting": "[5]; Isopropanol", "result": "Clear"}, {"measurement": "Visual observation RT", "setting": "[5]; Isopropanol", "result": "Clear"}, {"measurement": "XRPD results (Dried)", "setting": "[5]; MTBE", "result": "Pattern A"}, {"measurement": "Visual observation 50° C.", "setting": "[5]; MTBE", "result": "Clear"}, {"measurement": "Visual observation RT", "setting": "[5]; MTBE", "result": "Clear"}]}
{"smiles": "C=C1CC[C@@]2(O)C3Cc4ccc(OC(=O)CCCCCCCCCCCCCCCCC)c5c4[C@@]2(CCN3CC2CC2)[C@H]1O5", "note": "[Compound 12, (4aS,7aS,12bS)-3-(cyclopropylmethyl)-4a-hydroxy-7-methylene-2,3,4,4a,5,6,7,7a-octahydro-1H-4,12-methanobenzofuro[3,2-e]isoquinolin-9-yl stearate]", "values": [{"measurement": "Equilibrium solubility (mg/mL) Water", "setting": "[2]", "result": 0.026, "unit": "mg/mL"}, {"measurement": "Approximate Solubility (mg/mL) in Excipient: Sesame oil", "setting": "[3]; heating temp. 60 °C, obs. temp. 25 °C", "result": "<50", "unit": "mg/mL"}, {"measurement": "Approximate Solubility (mg/mL) in Excipient: Sesame oil", "setting": "[3]; heating temp. 60 °C, obs. temp. 40 °C", "result": ">411.1", "unit": "mg/mL"}]}
{"smiles": "Oc1ccc2c3c1O[C@H]1[C@H](O)CC[C@@]4(O)[C@@H](C2)N(CC2CC2)CC[C@]314", "note": "[6-β-naltrexol]", "values": [{"measurement": "time of peak plasma levels after oral dosing", "setting": "[1]", "result": "one"}, {"measurement": "mean elimination half-life", "setting": "[1]; oral", "result": "thirteen"}]}
